Results as given in patent US6852673B2, “Herbicidal pyridine compounds” (BASF Aktiengesellschaft, priority 1998, dated 2005).

How the values were obtained:
Type in all cases: in vivo
[1] = tested on: Ipomoea hederacea (IPOHE); assay: Pre-emergence herbicidal evaluation, morning glory
Method in brief: (§1)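 Rating done 2–4 weeks post-treatment in the greenhouse. Compound, in aqueous acetone, was sprayed onto soil surface right after sowing, at rates equivalent to about 0.0125–0.4 kg per hectare, before crop or weed emergence.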

[2] = tested on: Lamium purpureum (LAMPU); assay: Post-emergence herbicidal evaluation, purple deadnettle; conditions: rated 2 to 4 weeks after treatment
Method in brief: (§2)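 Emerged seedlings receive a water-diluted acetone formulation at about 0.03 to 0.4 kg per hectare per pot and are grown on in the greenhouse. Scoring after 2–4 weeks uses a 0 (untreated-like growth) to 9 (death) scale.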

[3] = tested on: Lamium purpureum (LAMPU); assay: Pre-emergence herbicidal evaluation, purple deadnettle
Method in brief: as §1

[4] = tested on: Stellaria media (STEME); assay: Pre-emergence herbicidal evaluation, chickweed
Method in brief: as §1

[5] = tested on: Setaria viridis (SETVI); assay: Pre-emergence herbicidal evaluation, green foxtail
Method in brief: as §1

[6] = tested on: Echinochloa grus galli (ECHCG); assay: Pre-emergence herbicidal evaluation, barnyard grass
Method in brief: as §1

[7] = tested on: Galium aparine (GALAP); assay: Post-emergence herbicidal evaluation, cleaver; conditions: rated 2 to 4 weeks after treatment
Method in brief: as §2

[8] = tested on: Solanum nigrum (SOLNI); assay: Post-emergence herbicidal evaluation, black nightshade; conditions: rated 2 to 4 weeks after treatment
Method in brief: as §2

[9] = tested on: Ambrosia artemiisifolia (AMBEL); assay: Post-emergence herbicidal evaluation, ragweed; conditions: rated 2 to 4 weeks after treatment
Method in brief: as §2

[10] = tested on: Glycine max (GLXMA); assay: Pre-emergence herbicidal evaluation, soyabeans
Method in brief: as §1

[11] = tested on: Zea mays (ZEAMX); assay: Pre-emergence herbicidal evaluation, maize
Method in brief: as §1

[12] = tested on: Hordeum vulgare (HORVW); assay: Post-emergence herbicidal evaluation, winter barley; conditions: rated 2 to 4 weeks after treatment
Method in brief: as §2

[13] = tested on: Alopecurus myosuroides (ALOMY); assay: Pre-emergence herbicidal evaluation, black grass
Method in brief: as §1

[14] = tested on: Abutilon theophrasti (ABUTH); assay: Pre-emergence herbicidal evaluation, velvetleaf
Method in brief: as §1

[15] = tested on: Triticum aestivum (TRZAW); assay: Post-emergence herbicidal evaluation, winter wheat; conditions: rated 2 to 4 weeks after treatment
Method in brief: as §2

[16] = tested on: Matricaria inodora (MATIN); assay: Post-emergence herbicidal evaluation, mayweed; conditions: rated 2 to 4 weeks after treatment
Method in brief: as §2

[17] = tested on: Oryza sativum (ORYSA); assay: Pre-emergence herbicidal evaluation, rice
Method in brief: as §1

[18] = tested on: Alopecurus myosuroides (ALOMY); assay: Post-emergence herbicidal evaluation, black grass; conditions: rated 2 to 4 weeks after treatment
Method in brief: as §2

[19] = tested on: Abutilon theophrasti (ABUTH); assay: Post-emergence herbicidal evaluation, velvetleaf; conditions: rated 2 to 4 weeks after treatment
Method in brief: as §2

[20] = tested on: Ambrosia artemiisifolia (AMBEL); assay: Pre-emergence herbicidal evaluation, ragweed
Method in brief: as §1

[21] = tested on: Triticum aestivum (TRZAW); assay: Pre-emergence herbicidal evaluation, winter wheat
Method in brief: as §1

[22] = tested on: Oryza sativum (ORYSA); assay: Post-emergence herbicidal evaluation, rice; conditions: rated 2 to 4 weeks after treatment
Method in brief: as §2

[23] = tested on: Stellaria media (STEME); assay: Post-emergence herbicidal evaluation, chickweed; conditions: rated 2 to 4 weeks after treatment
Method in brief: as §2

[24] = tested on: Glycine max (GLXMA); assay: Post-emergence herbicidal evaluation, soyabeans; conditions: rated 2 to 4 weeks after treatment
Method in brief: as §2

[25] = tested on: Digitaria sanguinalis (DIGSA); assay: Post-emergence herbicidal evaluation, large crabgrass; conditions: rated 2 to 4 weeks after treatment
Method in brief: as §2

[26] = tested on: Ipomoea hederacea (IPOHE); assay: Post-emergence herbicidal evaluation, morning glory; conditions: rated 2 to 4 weeks after treatment
Method in brief: as §2

SMILES: Cc1cc(OCC(F)(F)C(F)F)nc(Oc2cc(C(F)(F)F)nn2C)c1 [Example 6]
- IPOHE rating ([1]; dose 0.013 kg/ha): 0 (0 - No effect)
- IPOHE rating ([1]; dose 0.025 kg/ha): 1 (1 - Trace effect)
- IPOHE rating ([1]; dose 0.1 kg/ha): 2 (2 - Slight effect)
- IPOHE rating ([1]; dose 0.4 kg/ha): 8 (8 - Approaching complete kill)
- LAMPU rating ([2]; dose 0.1 kg/ha): 6 (6 - Herbicidal effect)
- LAMPU rating ([2]; dose 0.25 kg/ha): 4 (4 - Injury)
- LAMPU rating ([2]; dose 0.4 kg/ha): 7 (7 - Good herbicidal effect)
- LAMPU rating ([3]; dose 0.013 kg/ha): 7 (7 - Good herbicidal effect)
- LAMPU rating ([3]; dose 0.025 kg/ha): 7 (7 - Good herbicidal effect)
- LAMPU rating ([3]; dose 0.1 kg/ha): 9 (9 - Complete kill)
- LAMPU rating ([3]; dose 0.4 kg/ha): 9 (9 - Complete kill)
- STEME rating ([4]; dose 0.1 kg/ha): 9 (9 - Complete kill)
- STEME rating ([4]; dose 0.4 kg/ha): 9 (9 - Complete kill)
- SETVI rating ([5]; dose 0.013 kg/ha): 4 (4 - Injury)
- SETVI rating ([5]; dose 0.025 kg/ha): 6 (6 - Herbicidal effect)
- SETVI rating ([5]; dose 0.1 kg/ha): 8 (8 - Approaching complete kill)
- SETVI rating ([5]; dose 0.4 kg/ha): 9 (9 - Complete kill)
- ECHCG rating ([6]; dose 0.013 kg/ha): 0 (0 - No effect)
- ECHCG rating ([6]; dose 0.025 kg/ha): 3 (3 - Moderate effect)
- ECHCG rating ([6]; dose 0.1 kg/ha): 8 (8 - Approaching complete kill)
- ECHCG rating ([6]; dose 0.4 kg/ha): 9 (9 - Complete kill)
- GALAP rating ([7]; dose 0.1 kg/ha): 6 (6 - Herbicidal effect)
- GALAP rating ([7]; dose 0.25 kg/ha): 3 (3 - Moderate effect)
- GALAP rating ([7]; dose 0.4 kg/ha): 7 (7 - Good herbicidal effect)
- SOLNI rating ([8]; dose 0.1 kg/ha): 2 (2 - Slight effect)
- SOLNI rating ([8]; dose 0.25 kg/ha): 1 (1 - Trace effect)
- SOLNI rating ([8]; dose 0.4 kg/ha): 4 (4 - Injury)
- AMBEL rating ([9]; dose 0.1 kg/ha): 4 (4 - Injury)
- AMBEL rating ([9]; dose 0.25 kg/ha): 3 (3 - Moderate effect)
- AMBEL rating ([9]; dose 0.4 kg/ha): 6 (6 - Herbicidal effect)
- GLXMA rating ([10]; dose 0.013 kg/ha): 0 (0 - No effect)
- GLXMA rating ([10]; dose 0.025 kg/ha): 2 (2 - Slight effect)
- GLXMA rating ([10]; dose 0.1 kg/ha): 3 (3 - Moderate effect)
- GLXMA rating ([10]; dose 0.4 kg/ha): 5 (5 - Definite injury)
- ZEAMX rating ([11]; dose 0.013 kg/ha): 0 (0 - No effect)
- ZEAMX rating ([11]; dose 0.025 kg/ha): 1 (1 - Trace effect)
- ZEAMX rating ([11]; dose 0.1 kg/ha): 3 (3 - Moderate effect)
- ZEAMX rating ([11]; dose 0.4 kg/ha): 5 (5 - Definite injury)
- HORVW rating ([12]; dose 0.1 kg/ha): 2 (2 - Slight effect)
- HORVW rating ([12]; dose 0.25 kg/ha): 1 (1 - Trace effect)
- HORVW rating ([12]; dose 0.4 kg/ha): 3 (3 - Moderate effect)
- ALOMY rating ([13]; dose 0.013 kg/ha): 1 (1 - Trace effect)
- ALOMY rating ([13]; dose 0.025 kg/ha): 3 (3 - Moderate effect)
- ALOMY rating ([13]; dose 0.1 kg/ha): 9 (9 - Complete kill)
- ALOMY rating ([13]; dose 0.4 kg/ha): 9 (9 - Complete kill)
- ABUTH rating ([14]; dose 0.013 kg/ha): 1 (1 - Trace effect)
- ABUTH rating ([14]; dose 0.025 kg/ha): 2 (2 - Slight effect)
- ABUTH rating ([14]; dose 0.1 kg/ha): 3 (3 - Moderate effect)
- ABUTH rating ([14]; dose 0.4 kg/ha): 9 (9 - Complete kill)
- TRZAW rating ([15]; dose 0.1 kg/ha): 2 (2 - Slight effect)
- TRZAW rating ([15]; dose 0.25 kg/ha): 1 (1 - Trace effect)
- TRZAW rating ([15]; dose 0.4 kg/ha): 3 (3 - Moderate effect)
- MATIN rating ([16]; dose 0.1 kg/ha): 6 (6 - Herbicidal effect)
- MATIN rating ([16]; dose 0.25 kg/ha): 4 (4 - Injury)
- MATIN rating ([16]; dose 0.4 kg/ha): 6 (6 - Herbicidal effect)
- ORYSA rating ([17]; dose 0.013 kg/ha): 0 (0 - No effect)
- ORYSA rating ([17]; dose 0.025 kg/ha): 0 (0 - No effect)
- ORYSA rating ([17]; dose 0.1 kg/ha): 1 (1 - Trace effect)
- ORYSA rating ([17]; dose 0.4 kg/ha): 2 (2 - Slight effect)
- ALOMY rating ([18]; dose 0.1 kg/ha): 6 (6 - Herbicidal effect)
- ALOMY rating ([18]; dose 0.25 kg/ha): 2 (2 - Slight effect)
- ALOMY rating ([18]; dose 0.4 kg/ha): 8 (8 - Approaching complete kill)
- ABUTH rating ([19]; dose 0.1 kg/ha): 4 (4 - Injury)
- ABUTH rating ([19]; dose 0.25 kg/ha): 2 (2 - Slight effect)
- ABUTH rating ([19]; dose 0.4 kg/ha): 6 (6 - Herbicidal effect)
- AMBEL rating ([20]; dose 0.013 kg/ha): 1 (1 - Trace effect)
- AMBEL rating ([20]; dose 0.025 kg/ha): 1 (1 - Trace effect)
- AMBEL rating ([20]; dose 0.1 kg/ha): 9 (9 - Complete kill)
- AMBEL rating ([20]; dose 0.4 kg/ha): 9 (9 - Complete kill)
- TRZAW rating ([21]; dose 0.013 kg/ha): 0 (0 - No effect)
- TRZAW rating ([21]; dose 0.025 kg/ha): 0 (0 - No effect)
- TRZAW rating ([21]; dose 0.1 kg/ha): 1 (1 - Trace effect)
- TRZAW rating ([21]; dose 0.4 kg/ha): 2 (2 - Slight effect)
- ORYSA rating ([22]; dose 0.1 kg/ha): 1 (1 - Trace effect)
- ORYSA rating ([22]; dose 0.25 kg/ha): 1 (1 - Trace effect)
- ORYSA rating ([22]; dose 0.4 kg/ha): 1 (1 - Trace effect)
- STEME rating ([23]; dose 0.1 kg/ha): 2 (2 - Slight effect)
- STEME rating ([23]; dose 0.25 kg/ha): 2 (2 - Slight effect)
- STEME rating ([23]; dose 0.4 kg/ha): 3 (3 - Moderate effect)
- GLXMA rating ([24]; dose 0.1 kg/ha): 7 (7 - Good herbicidal effect)
- GLXMA rating ([24]; dose 0.25 kg/ha): 7 (7 - Good herbicidal effect)
- GLXMA rating ([24]; dose 0.4 kg/ha): 7 (7 - Good herbicidal effect)
- DIGSA rating ([25]; dose 0.1 kg/ha): 6 (6 - Herbicidal effect)
- DIGSA rating ([25]; dose 0.25 kg/ha): 4 (4 - Injury)
- DIGSA rating ([25]; dose 0.4 kg/ha): 7 (7 - Good herbicidal effect)
- IPOHE rating ([26]; dose 0.1 kg/ha): 8 (8 - Approaching complete kill)
- IPOHE rating ([26]; dose 0.25 kg/ha): 7 (7 - Good herbicidal effect)
- IPOHE rating ([26]; dose 0.4 kg/ha): 9 (9 - Complete kill)
